ChEMBL document CHEMBL5321225, “DeepCancerMap: A versatile deep learning platform for target- and cell-based anticancer drug discovery” (Eur J Med Chem, 2023)

Experiments:
CNE-2 = experiment: Antiproliferative activity against human CNE-2 cells assessed as reduction in cell viability; format: functional, cell-based
A549 = experiment: Antiproliferative activity against human A549 cells assessed as reduction in cell viability; format: functional, cell-based

| IC50 (A549) [nM] | SMILES | IC50 (CNE-2) [nM] |
| --- | --- | --- |
| > 50000 | Cc1ccc(C(=O)Nc2ncc(Cc3cccc(Cl)c3)s2)cc1 | 2990 |
| > 50000 | CCCCCCC(=O)Nc1ncc(Cc2ccc(OC)cc2)s1 | 2030 |
